Results as given in US20040259853A1, “Methods for preventing acute clinical vascular events in a subject” (The Trustees of Columbia University, priority 2000, published 2004).

Tests used:
[1] = tested on: mouse peritoneal macrophages; assay: Annexin V / propidium iodide cell death assay of macrophages
Description: Representative fluorescence images and quantitative cell death data from five fields of cells for each condition are shown, expressed as the percent of total cells that stained with annexin V or propidium iodide (mean±S.E.M.; n=5 fields of cells, where each field had ˜200 cells).
Representative fluorescence images and quantitative data are shown (mean±S.E.M.; n=5 fields of cells, where each field had ˜200 cells).
Representative fluorescence images are shown in FIG. 19A, and quantitative apoptosis data from five fields of cells for each condition are shown in FIG. 19B, expressed as the percent of total cells that stained with annexin V or propidium iodide (mean±S.E.M.; n=5 fields of cells, where each field had ˜200 cells).
Peritoneal macrophages from adult female C57BL/6 mice and all mutant mice used in this study were harvested three days after the intraperitoneal injection of 40/g of concanavalin A in 0.5 ml of PBS. The cells were incubated in Dulbecco's modified Eagle's medium (DMEM) supplemented with 10% fetal bovine serum (FBS) and 20% L-cell conditioned medium. The medium was replaced every 24 hours until the macrophages were confluent. On the day of the experiment, the cells were washed three times with warm PBS and incubated as indicated in the Description of Figures for FIGS. 15A-20E. Most importantly, FC-loading of wild type and mutant macrophages was effected by incubating the cells with 100 μg/ml acetyl-LDL in the presence of 10 μg/ml 58035, which inhibits ACAT-mediated cholesterol esterification (11). At the end of the incubation period, the macrophages were assayed for early-mid-stage apoptosis (i.e., phosphatidylserine externalization) by staining with Alexa-488-labeled annexin V and for late-stage apoptosis (i.e., increased membrane permeability) by staining with propidium iodide (PI), as previously described (11). Cells were immediately viewed with an Olympus IX-70 inverted fluorescence microscope, and 3-6 representative fields (˜1000 cells) for each condition were counted for the number of annexin-positive, PI-positive, and total cells.

[2] = tested on: cholesterol trafficking to the plasma membrane; assay: Cholesterol oxidase assay (plasma membrane cholesterol); format: cell-based, mouse
Description: Shown is the mass (in μg/mg cell protein) of cholesterol (Chol, open bars), which is the cholesterol oxidase-inaccessible pool of intracellular cholesterol, and of cholestenone (CN, striped bars), which is the cholesterol oxidase-accessible pool of plasma membrane cholesterol.
Macrophages were fixed with 1% glutaraldehyde for 10 min and then incubated for 30 min at 37° C. with 2 U/ml Streptomyces cholesterol oxidase. Cellular lipids were extracted twice with 0.5 ml of hexane:isopropanol (3:2).
Cholesterol and.cholestenone mass in these extracts were determined by gas-liquid chromatography using β-sitosterol as an internal standard. The lipid-extracted cell monolayer was dissolved in 1 ml 1N NaOH and assayed for protein content using the method of Lowry et al. (50).

[3] = tested on: ABCA1-mediated cholesterol efflux; assay: 3H-cholesterol efflux to apoA-I from free cholesterol-loaded macrophages; format: cell-based, mouse
Description: Peritoneal macrophages from C57 mice were incubated for 5 h with 100 μg/ml ^3H-cholesterol-labeled acetyl-LDL in DMEM, 0.2% BSA, in the presence of 10 μg/ml 58035.
Acetyl-LDL (800 μg) was incubated with 10 μCi ^3H-cholesterol for 30 min at 37° C., followed by addition of 8 ml of DMEM, 0.2% BSA. The macrophages were incubated with this medium for 5 h, washed 3 times with PBS, and then incubated with DMEM, 0.2% BSA for 15 min at 37° C. After washing with PBS, the macrophages were incubated with DMEM, 0.2% BSA, containing either 15 μg/ml apoAI or 20 μg/ml HDL2. At the indicated time points, 100 μl of media was removed and centrifuged for 5 min at 14,000 rpm to pellet cellular debris. The radioactivity in this fraction of media was quantitated by liquid scintillation counting. After the last time point, the remainder of the media was removed, and the cells were dissolved in 0.5 ml of 0.1 N NaOH containing 0.5% sodium dodecylsulfate (5 h at room temperature). A 100 μl-aliquot of the cell lysate was counted, and the percent efflux was calculated as (media cpm)[…](cell +media cpm)×100. Total protein in the cell lysate was determined using the Bio-Rad DC protein assay kit. Note that there was no statistical difference in cellular cpm or protein between cholesteryl ester- and free cholesterol-loaded macrophages.

ACAT enzyme = conditions: reference 24; cited from earlier work
[4] = tested on: ABCA1-mediated cholesterol efflux; assay: 3H-cholesterol efflux to apoA-I from free cholesterol-loaded macrophages; format: cell-based, mouse; conditions: 70 nM; macrophages incubated for a prolonged period with acetyl-LDL without ACAT inhibitor (FIG. 12C)
ABCA1 protein = assay: ABCA1 immunoblot of total and cell-surface protein in cholesterol-loaded macrophages; format: cell-based, mouse
Description: Macrophages were pre-incubated for 14 h with 50 μg/ml acetyl-LDL in DMEM, 0.2% BSA, in the absence (CE) or presence (FC) of 58035. The cells were then incubated for 5 h with 100 μg/ml acetyl-LDL in DMEM, 0.2% BSA, in the absence or presence of 58035, respectively, with no further additions (Control) or in the presence of 10 μg/ml cycloheximide, 50 μM ALLN, or 50 μM lactacystin as indicated. Aliquots of cell lysates were then assayed for ABCA1 and β-actin protein by immunoblot analysis.
Macrophages were pre-incubated for 14 h with 50 μg/ml acetyl-LDL in DMEM, 0.2% BSA, in the absence (CE) or presence (FC) of 58035. […] Aliquots of total cell protein (top panel) or cell-surface protein (bottom panel) were then subjected to immunoblot analysis for ABCA1 and the standards β-actin or β1-integrin.
Macrophage monolayers in 35-mm dishes were washed with ice-cold PBS 3 times and then incubated with ice-cold PBS containing 0.5 mg/ml NHS—SS-biotin (Pierce) for 30 minutes at 4° C. After washing 5 times with ice-cold PBS containing 20 mM Tris-HCl, pH 8.0, the cells were scraped into PBS and pelleted by centrifugation. The pelleted macrophages were lysed in 50 μl RIPA buffer (0.5% sodium deoxycholate, 0.1% SDS, 1% Triton X-100, 20 mM Tris, 150 mM NaCl, and 5 mM EDTA, pH 8) containing 1 mM PMSF. […] of the lysate were subjected directly to 4-20% gradient SDS-polyacrylamide gel electrophoresis (SDS-PAGE) for determination of total ABCA1. The rest of the cell lysate was affinity-purified to isolate biotinylated proteins. Briefly, the cell lysates were diluted to 150 μl in RIPA buffer and incubated with 50 μl immobilized streptavidin agarose (Pierce), which was pre-washed three times with RIPA buffer at 0° C. for 2 h with gentle shaking. The agarose was pelleted by centrifugation using a microcentrifuge at 5,000 rpm for 2 min; the pellet was resuspended in 1 ml RIPA buffer, and the process was repeated 5 times. The agarose was resuspended 30 μl SDS-PAGE loading buffer containing 330 mM β-mercaptoethanol at 37^6C for 15 min and subjected to SDS-PAGE as above. ABCA1 and β-integrin were detected by Western blot using anti-ABCA1 and anti-β-integrin anti-sera. The blots were reprobed with anti-β-actin antibody, which detected no actin signal, thus verifying that no cytosolic protein was biotinylated by the procedure.
Peritoneal macrophages were lysed in RIPA buffer containing 1 mM PMSF. Nuclei were removed by centrifugation at 3000×g for 10 min at 4° C. […] For Western blot detection of ABCA1, anti-ABCA1 antiserum was used. Signals were detected using HRP-conjugated secondary anti-bodies (Bio-Rad) and ECL (Amersham Pharmacia Biotech). The membranes were reprobed with anti-β actin monoclonal antibody or anti-β1-integrin anti-serum for the proper internal controls. The relative intensities of the bands were determined by densitometry.

[5] = tested on: unfolded protein response (UPR); assay: Immunoblot analysis of UPR markers (CHOP, PERK, IRE1α, XBP-1) in macrophages
Description: For detection of PERK, nuclei-free cell extracts were immunoprecipitated with anti-PERK antiserum and then immunoblotted, while for detection of ATF-4 and CHOP, immunoblots were performed on nuclear extracts. Lamin B, a nuclear protein, was used as the loading control.
Immunoprecipitation and immunoblot detection for IRE1α and PERK were conducted as described by Harding et al. (35). Immunoblot analyses of XBP-1, ATF4, and CHOP were carried out as described previously (36,38) with minor modifications. Briefly, cells were lysed in RIPA buffer to prepare whole-cell lysates or to prepare nuclei by centrifugation. The whole-cell lysates or nuclei were resuspended in 2×SDS-PAGE loading buffer and incubated at 95° C. for 10 min. Whole cell (100 μg) or nuclear lysates (20 μg) were electrophoresed on 4-20% gradient SDS-PAGE gels and electrotransferred to 0.22-μm nitrocellulose membrane using a Bio-Rad mini-transfer tank. After incubation with primary antibodies, the protein bands were detected with HRP-conjugated secondary antibodies (Bio-Rad) and ECL (Amersham Pharmacia Biotech). The membranes were reprobed with an anti-β-actin monoclonal antibody or an anti-lamin B serum to control for differences in loading.

[6] = tested on: LDL receptor knockout mice; assay: In vivo efficacy in LDL receptor knockout mouse model of atherosclerosis; conditions: 0.75 mg/kg/d
Description: Plasma was assayed for total cholesterol.
Asteriks denote statistically significant differences between drug and control groups (p<0.05 by the Student's t test).

For `CCN(CC)CCO[C@H]1CC[C@@]2(C)C(=CC[C@@H]3[C@@H]2CC[C@]2(C)C(=O)CC[C@@H]32)C1` [U18666A, 3-β-[2-(diethylamino)ethoxy]androst-5-en-17-one], the staurosporine-induced macrophage apoptosis ([1]; data not shown) was “failed to protect”, the “FC-induced death of Perk−/− macrophages” value ([1]; low dose (70 nM), 10 h (FIGS. 19A, 19B)) was “markedly protected” and the FC-induced macrophage death ([1]; low dose (70 nM), acetyl-LDL + 58035, 8 h (FIG. 15C)) was “protected macrophages from the lethal effect of cholesterol loading”. The “reduction of cholesterol trafficking to the plasma membrane” value ([2]; 70 nM (data not shown)) was “about 10%”, the “accrual of cholesterol in the plasma membrane” value ([2]; low dose (70 nM), cholesterol oxidase accessibility and cyclodextrin extractability (FIG. 15B)) was “no effect” and the “concentrations at which efflux was gradually inhibited” value ([3]; FC-loaded macrophages) was “greater than 100 nM”. The “induction of cholesterol efflux to ApoA-1” value ([3]; FC-loaded macrophages (FIGS. 11A, 11B)) was “marked ability to induce cholesterol efflux to ApoA-1”, the “concentration of peak cholesterol efflux to ApoA-1” value ([3]; FC-loaded macrophages, 6 h apoA-I (FIG. 11A)) was 70 nM and the “restoration of ABCA1-dependent efflux” value ([3]; optimal low doses, FC-loaded macrophages (FIG. 12A)) was “restored ABCA1-dependent efflux”. The “direct inhibitory effect on the ACAT enzyme” value (ACAT enzyme) was “no direct inhibitory effect”, the “increase of cholesterol efflux to apoA-I” value [4] was “about 30%” and the “ABCA1 protein loss in free cholesterol-loaded cells (total protein)” value (ABCA1 protein; 70 nM (FIG. 13, top panel)) was “protected from the ABCA1 protein loss”. For the same compound, the “decrease of cell-surface ABCA1 protein” value (ABCA1 protein; 70 nM, FC-loaded cells (FIG. 13, bottom panel), 60% in untreated cells) was “about 15%”, the “ABCA1 protein expression in free cholesterol-loaded cells” value (ABCA1 protein; low concentrations) was “markedly enhance” and the “IRE1α activation and XBP-1 expression in FC-loaded macrophages” value ([5]; low dose (70 nM) (FIG. 16D, lane 5)) was “markedly attenuated both events”. For the same compound, the “CHOP induction in FC-loaded macrophages” value ([5]; low dose (70 nM), 5 h (FIG. 16A, lane 5)) was “attenuated CHOP induction”, the “PERK activation in FC-loaded macrophages” value ([5]; low dose (70 nM), 5 h (FIG. 16B, lane 5)) was “blocked PERK activation” and the “plasma HDL cholesterol versus vehicle” value ([6]; 12 weeks (FIG. 14B)) was “similar”. The “atherosclerotic lesion area, proximal aorta” value ([6]; 12 weeks (FIG. 14C), p<0.05) was “marked reduction”, the “acellular area, proximal aorta” value ([6]; 12 weeks (FIG. 14D), p<0.05) was “marked reduction” and the “lipid core area, proximal aorta” value ([6]; 12 weeks (FIG. 14E), p<0.05) was “marked reduction”. The “plasma total cholesterol versus vehicle” value ([6]; 12 weeks, cholesterol and saturated fat diet (FIG. 14A)) was “similar”.
